Entries after “also recorded” stand apart in the source; their conditions may differ.

Series [1] relates to non-NMDA receptors. Briefly: Inward membrane current elicited by the compound alone in Xenopus oocytes injected with rat hippocampus poly(A)+ RNA (agonist action). The format is cell-based. The note with it: antagonist 1 μM. The procedure: (§1) 50 nl of the poly(A)^+ RNA (1 μg/μl) isolated was injected into an oocyte by a micromanipulator and the oocytes were cultured in a Barth's medium (88 mM NaCl, 1 mM KCl, 2.4 mM NaHCO3, 0.3 mM Ca(NO3)2, 0.41 mM CaCl2, 0.82 mM MgSO4, 10 μg/ml sodium penicillin, 10 μg/ml streptomycin sulfate, and 15 mM HEPES) at 19° C. for three to four days and used for measurement.
(§2) The above-mentioned oocyte was set in a chamber under perfusion of frog Ringer's solution (120 mM NaCl, 2 mM KCl, 1.8 mM CaCl2, and 5 mM HEPES, pH 7.4) and microelectrodes were inserted into oocytes and the membrane potential was fixed at -70 mV. Subsequently, another frog Ringer's solution in which AMPA (100 μM) or kainate(KA) (100 μM) both of which are agonists for non-NMDA receptors was dissolved was substituted for the original Ringer's solution and then an inward membrane current was measured.

In series [2] the test system is non-NMDA receptors. Nature of the series: Potentiation of AMPA- or kainic acid-elicited membrane current in Xenopus oocytes injected with rat hippocampus poly(A)+ RNA (two-electrode voltage clamp). The procedure: By use of an improved method of Masu's Xenopus oocyte expression system [Nature 329,836 (1987)] an electrophysiological analysis was conducted.
(1) Preparation of poly(A)^+ RNA isolated from a rat hippocampus.
A hippocampus region was isolated from a rat and homogenized in the presence of […] and total RNA was extracted from the hippocampus by means of the ultracentrifugating method utilizing cesium chloride. Poly(A)^+ RNA was refined from the obtained RNA by use of oligo dT cellulose column.
(2) Expression of protein in Xenopus oocytes
as §1
(3) Electrophysiological and pharmacological experiment by two-electrodes voltage clamp method.
as §2
The membrane potential was fixed at -70 mV. The response was defined as one which was generated on the specimen under perfusion of frog Ringer's solution in which AMPA or kainic acid both of which are agonists for non-NMDA receptors was dissolved until a final concentration of 100 μM. The responses are shown as relative values which were measured on the oocytes under perfusion of frog Ringer's solution in which the compound of the invention and anilacetum which is a potentiator for non-NMDA receptors were dissolved until a concentration of 50 μM with AMPA or kainic acid.

Setting [3] is: 50 μM test substance with 100 μM AMPA, membrane potential -70 mV, control (AMPA alone) = 1.
Where [4] appears, read: 50 μM test substance with 100 μM kainic acid, membrane potential -70 mV, control (kainic acid alone) = 1.

On to `N#Cc1cc2[nH]c(=O)c(=O)[nH]c2cc1[N+](=O)[O-]` [CNQX, reference compound], for which the “Inhibition of inward membrane current elicited by the compound of the invention alone” value in series [1] is recorded as “inhibited”. Moreover, the “Inhibition of inward membrane current elicited by AMPA (100 μM) or kainate (100 μM)” value in series [2] (antagonist 1 μM, -70 mV) is listed as “inhibited”.

Regarding `O=C(O)COc1c(F)cc(SCCNS(=O)(=O)c2ccc(Cl)cc2)cc1F` [Compound 68, 2,6-Difluoro-4-[2-(4-chlorophenylsulfonylamino)ethylthio]phenoxyacetic acid], in series [2] (xenopus oocytes, 50 µM), the “Potentiation (relative values with a control as 1), AMPA” value came to 1.5 and the “Potentiation (relative values with a control as 1), kainic acid” value turned out to be 1.6.

As to `O=C(O)COc1ccc(SCCNS(=O)(=O)c2ccc(Br)cc2)cc1F` [Compound 106, 2-Fluoro-4-[2-(4-bromophenylsulfonylamino)ethylthio]phenoxyacetic acid], in series [2] (xenopus oocytes, 50 µM), the “Potentiation (relative values with a control as 1), AMPA” value amounted to 1.4 and the “Potentiation (relative values with a control as 1), kainic acid” value was 1.5.

As to `COC(=O)COc1c(F)cc(SCCNS(=O)(=O)c2ccc(Cl)cc2)cc1F` [Compound 128, methyl 4-[2-(4-chlorophenylsulfonylamino)ethylthio]-2,6-difluorophenoxyacetate], in series [2] (xenopus oocytes, 50 µM), the “Potentiation (relative values with a control as 1), AMPA” value turned out to be 1.5 and the “Potentiation (relative values with a control as 1), kainic acid” value came out at 1.6.

On to `NC(=O)COc1c(F)cc(SCCNS(=O)(=O)c2ccccc2)cc1F` [Compound 139, 4-[2-(Phenylsulfonylamino)ethylthio]-2,6-difluorophenoxyacetamide], for which, in series [2] (50 μM compound with 100 μM AMPA or kainic acid), the “Potentiation of the non-NMDA receptor response (membrane current elicited by kainic acid and AMPA), in words” value was “definitely active; also recorded: especially strong action”. Moreover, the “Potentiation (relative values with a control as 1), AMPA” value in series [2] (setting [3]) was 23.2. The “Potentiation (relative values with a control as 1), kainic acid” value in series [2] (setting [4]) was 2.8.

`NC(=O)COc1ccc(SCCNS(=O)(=O)c2ccccc2)cc1F` [Compound 142, 4-[2-(Phenylsulfonylamino)ethylthio]-2-fluorophenoxyacetamide]: in series [2] (xenopus oocytes, 50 µM), the “Potentiation (relative values with a control as 1), AMPA” value is 1.6 and the “Potentiation (relative values with a control as 1), kainic acid” value is listed as 1.5.

Regarding `CN(C)C(=O)COc1ccc(SCCNS(=O)(=O)c2ccccc2)cc1F` [Compound 143, N,N-Dimethyl-4-[2-(phenylsulfonylamino)ethylthio]-2-fluorophenoxyacetamide], in series [2] (xenopus oocytes, 50 µM), the “Potentiation (relative values with a control as 1), AMPA” value turned out to be 1.4 and the “Potentiation (relative values with a control as 1), kainic acid” value came to 1.6.

As to `NC(=O)Cc1ccc(SCCNS(=O)(=O)c2ccccc2)cc1` [Compound 145, 4-[2-(phenylsulfonylamino)ethylthio]phenylacetamide], in series [2] (xenopus oocytes, 50 µM), the “Potentiation (relative values with a control as 1), AMPA” value stood at 1.3 and the “Potentiation (relative values with a control as 1), kainic acid” value was found to be 1.5.

With `C[C@]12N[C@H](Cc3ccccc31)c1ccccc12` [MK-801], the “Inhibition of inward membrane current elicited by the compound of the invention alone” value in series [1] is listed as “not inhibited”.

Regarding `COc1ccc(C(=O)N2CCCC2=O)cc1` [anilacetum, reference compound], the “Potentiation (relative values with a control as 1), AMPA” value in series [2] (setting [3]) is recorded as “does not potentiate”; in series [2] (50 μM test substance with 100 μM AMPA, membrane potential -70 mV, control (AMPA alone) = 1, 50 µM), 1. For the same compound, the “Potentiation (relative values with a control as 1), kainic acid” value in series [2] (setting [4]) is given as “does not potentiate”; in series [2] (50 μM test substance with 100 μM kainic acid, membrane potential -70 mV, control (kainic acid alone) = 1, 50 µM), 1. Further, the “Effect on response elicited by AMPA” value in series [2] (1 mM test substance) is reported as “doubles”. In series [2] (1 mM test substance (20 times in concentration)), the “Effect on response elicited by kainic acid” value is recorded as “does not affect”.

Source of the values: patent publication US5955505A, “Glutamic acid receptor agonist” (Nippon Suisan Kaisha, Ltd., priority 1995, dated 1999).
